In assay [1] the test system is Wnt activity (Wnt-responsive SP5 promoter luciferase reporter in SW480 cells). The assay is described as follows: Wnt activity reporter assay: SW480 cells with SP5 promoter-driven firefly luciferase. The conditions noted are these: Homo sapiens, 24 h after compound addition, read-out: Wnt inhibition. In kind it is cell-based. An excerpt:
The above synthesized compounds were screened using the assay procedure for Wnt activity described below.
Reporter cell lines were generated by stably transducing cells of cancer cell lines (e.g., colon cancer) with a lentiviral construct that include a Wnt-responsive promoter driving expression of the firefly luciferase gene.
Lentiviral constructs were made in which the SP5 promoter, a promoter having eight TCF/LEF binding sites derived from the SP5 promoter, was linked upstream of the firefly luciferase gene. The lentiviral constructs included a hygromycin resistance gene as a selectable marker. The SP5 promoter construct was used to transduce SW480 cells, a colon cancer cell line having a mutated APC gene that generates a truncated APC protein, leading to de-regulated accumulation of β-catenin.
Cultured SW480 cells bearing a reporter construct were distributed at approximately 10,000 cells per well into 384 well multiwell plates. Compounds were then added to the wells in half-log dilutions using a three micromolar top concentration. A series of control wells for each cell type received only buffer and compound solvent. Twenty-four hours after the addition of compound, reporter activity for luciferases was assayed, for example, by addition of the BrightGlo luminescence reagent (Promega) and the Victor3 plate reader (Perkin Elmer). Readings were normalized to DMSO only treated cells, and normalized activities were then used for the IC50 calculations.

The target in assay [2] is DYRK1A (Homo sapiens (Human), UniProt Q13627). The assay can be described thus: DYRK1A activity Tau assay: pSer396 Tau in SH-SY5Y cells by ELISA / western blot. It counts as cell-based. The conditions noted are these: overnight (16-18 h) exposure. For orientation: In an ELISA, binding on a coated surface is turned into a signal by an enzyme label.

Regarding `O=C(NC1CCC(F)(F)CC1)c1n[nH]c2ccc(-c3cccnc3)cc12` [Compound 1283, N-(4,4-Difluorocyclohexyl)-5-(pyridin-3-yl)-1H-indazole-3-carboxamide], the IC50 in assay [1] came to 1300 nM. Moreover, the midpoint of the response in assay [2], the EC50, lay at 2 nM.
In the same order, the values of `CC(C)(F)CN1CCC(NC(=O)c2n[nH]c3ccc(-c4cccnc4)cc23)CC1` [Compound 1309, N-(1-(2-Fluoro-2-methylpropyl)piperidin-4-yl)-5-(pyridin-3-yl)-1H-indazole-3-carboxamide] are 2260 nM and 7 nM.
In the case of `O=C(Nc1cnccn1)c1n[nH]c2ccc(-c3cncc(CN4CCCCCC4)c3)cc12` [Compound 88, 5-(5-(Azepan-1-ylmethyl)pyridin-3-yl)-N-(pyrazin-2-yl)-1H-indazole-3-carboxamide], in assay [1], the IC50 turned out to be 430 nM.
For `O=C(Nc1ccc(CN2CCCC2)cc1)c1n[nH]c2ccc(-c3cccc(F)c3F)cc12` [Compound 1327, 5-(2,3-Difluorophenyl)-N-(4-(pyrrolidin-1-ylmethyl)phenyl)-1H-indazole-3-carboxamide], the IC50 in assay [1] is 1500 nM. Further, the EC50 in assay [2] was 31 nM.
For the compound `O=C(Nc1cccnc1)c1n[nH]c2ccc(-c3cncc(CN4CC(CO)(CO)C4)c3)cc12` [Compound 50, 5-(5-((3,3-Bis(hydroxymethyl)azetidin-1-yl)methyl)pyridin-3-yl)-N-(pyridin-3-yl)-1H-indazole-3-carboxamide], in assay [1], the IC50 came out at 10000 nM.
Consider `CC(C)(C)CN1CCC(NC(=O)c2n[nH]c3ccc(-c4cccnc4)cc23)CC1` [Compound 329, N-(1-Neopentylpiperidin-4-yl)-5-(pyridin-3-yl)-1H-indazole-3-carboxamide], for which the IC50 in assay [1] is 4650 nM. The compound also showed an EC50 in assay [2] of 7 nM.
Consider `NC1CN(c2cncc(-c3ccc4[nH]nc(C(=O)Nc5cccc(F)c5)c4c3)n2)C1` [Compound 1318, 5-(6-(3-Aminoazetidin-1-yl)pyrazin-2-yl)-N-(3-fluorophenyl)-1H-indazole-3-carboxamide], for which the IC50 in assay [1] amounted to 4000 nM. The compound further had an EC50 in assay [2] of 6 nM.
For the compound `[2H]C([2H])([2H])Oc1ccc(NC(=O)c2n[nH]c3ccc(-c4cncc(C([2H])([2H])N5CCCCC5)c4)cc23)cn1` [Compound 69, N-(6-(methoxy-d3)pyridin-3-yl)-5-(5-(piperidin-1-ylmethyl-d2)pyridin-3-yl)-1H-indazole-3-carboxamide], the IC50 in assay [1] worked out at 45 nM.
With `CN1CCN(c2ccc(NC(=O)c3n[nH]c4ccc(-c5cncc(NC(=O)c6ccc(F)cc6F)c5)cc34)cn2)CC1` [Compound 47, 5-(5-(2,4-Difluorobenzamido)pyridin-3-yl)-N-(6-(4-methylpiperazin-1-yl)pyridin-3-yl)-1H-indazole-3-carboxamide], in assay [1], the IC50 was found to be 333 nM.
The same measure, in the same setting: the same measure for `CC(C)OCCCNC(=O)c1n[nH]c2ccc(-c3cncc(F)c3)cc12` [Compound 1263, 5-(5-Fluoropyridin-3-yl)-N-(3-isopropoxypropyl)-1H-indazole-3-carboxamide]: 1400 nM; for `O=C(Nc1ccc(N2CC(CO)(CO)C2)nc1)c1n[nH]c2ccc(-c3cncc(CN4CCCCC4)c3)cc12` [Compound 72, N-(6-(3,3-Bis(hydroxymethyl)azetidin-1-yl)pyridin-3-yl)-5-(5-(piperidin-1-ylmethyl)pyridin-3-yl)-1H-indazole-3-carboxamide]: 1500 nM; for `CN1CCN(c2ccc(NC(=O)c3n[nH]c4ccc(-c5cncc(NC(=O)c6c(F)cccc6F)c5)cc34)cn2)CC1` [Compound 49, 5-(5-(2,6-Difluorobenzamido)pyridin-3-yl)-N-(6-(4-methylpiperazin-1-yl)pyridin-3-yl)-1H-indazole-3-carboxamide]: 226 nM.
On the same count and under the same terms, the same measure for `O=C(Nc1cccnc1)c1n[nH]c2ccc(-c3cncc(CN4CCS(=O)(=O)CC4)c3)cc12` [Compound 86, 5-(5-((1,1-Dioxidothiomorpholino)methyl)pyridin-3-yl)-N-(pyridin-3-yl)-1H-indazole-3-carboxamide]: 210 nM; for `O=C(Nc1ccc(OC(CO)CO)nc1)c1n[nH]c2ccc(-c3cncc(CN4CCCCC4)c3)cc12` [Compound 70, N-(6-((1,3-Dihydroxypropan-2-yl)oxy)pyridin-3-yl)-5-(5-(piperidin-1-ylmethyl)pyridin-3-yl)-1H-indazole-3-carboxamide]: 500 nM; for `[2H]C([2H])([2H])Oc1ccc(NC(=O)c2n[nH]c3ccc(-c4cncc(CN5CCCCC5)c4)cc23)cn1` [Compound 68, N-(6-(Methoxy-d3)pyridin-3-yl)-5-(5-(piperidin-1-ylmethyl)pyridin-3-yl)-1H-indazole-3-carboxamide]: 57 nM.
As to `O=C(Nc1cc(C(F)(F)F)ccn1)c1n[nH]c2ccc(-c3cncc(CN4CCCCC4)c3)cc12` [Compound 60, 5-(5-(Piperidin-1-ylmethyl)pyridin-3-yl)-N-(4-(trifluoromethyl)pyridin-2-yl)-1H-indazole-3-carboxamide], in assay [2], the midpoint of the response, the EC50, lay at 20 nM.
Compound `O=C(NC1CCN(Cc2ccccc2)CC1)c1n[nH]c2ccc(-c3cccnc3)cc12` [Compound 1152, N-(1-Benzylpiperidin-4-yl)-5-(pyridin-3-yl)-1H-indazole-3-carboxamide] had an EC50 in assay [2] of 3 nM.
For the compound `O=C(Nc1ncc(F)cc1F)c1n[nH]c2ccc(-c3cccnc3)cc12` [Compound 46, N-(3,5-Difluoropyridin-2-yl)-5-(pyridin-3-yl)-1H-indazole-3-carboxamide], a half-maximal effect in assay [2] (EC50) was put at 4 nM.
Still for that read-out and setting: the same measure for `O=C(NC1CCCCC1)c1n[nH]c2ccc(-c3cc(CN4CCCCC4)cc(F)c3F)cc12` [Compound 217, N-Cyclohexyl-5-(2,3-difluoro-5-(piperidin-1-ylmethyl)phenyl)-1H-indazole-3-carboxamide]: 36 nM.
Regarding `CC(C)NC(=O)c1n[nH]c2cc(F)c(-c3cncc(F)c3)cc12` [Compound 1251, 6-Fluoro-5-(5-fluoropyridin-3-yl)-N-isopropyl-1H-indazole-3-carboxamide], the midpoint of the response in assay [2], the EC50, lay at 45 nM.
Still for that read-out and setting: the same measure for `CC(C)(F)CN1CCC(NC(=O)c2n[nH]c3ccc(-c4ccc(F)nc4)cc23)CC1` [Compound 1321, N-(1-(2-Fluoro-2-methylpropyl)piperidin-4-yl)-5-(6-fluoropyridin-3-yl)-1H-indazole-3-carboxamide]: 14 nM; for `CCN1CCC(NC(=O)c2n[nH]c3ccc(-c4cnc5ccc(F)cc5c4)cc23)CC1` [Compound 1295, N-(1-Ethylpiperidin-4-yl)-5-(6-fluoroquinolin-3-yl)-1H-indazole-3-carboxamide]: 340 nM; for `O=C(Nc1ccc(C(F)(F)F)cn1)c1n[nH]c2ccc(-c3cccnc3)cc12` [Compound 40, 5-(Pyridin-3-yl)-N-(5-(trifluoromethyl)pyridin-2-yl)-1H-indazole-3-carboxamide]: 372 nM.
The same measure, in the same setting: to `O=C(NC1CCOCC1)c1n[nH]c2ccc(-c3cccc(F)c3)cc12` [Compound 13, 5-(3-Fluorophenyl)-N-(tetrahydro-2H-pyran-4-yl)-1H-indazole-3-carboxamide] belongs 332 nM; to `CC(C)NC(=O)c1n[nH]c2ccc(-c3cncc(N4CCCC4)c3)cc12` [Compound 1245, N-Isopropyl-5-(5-(pyrrolidin-1-yl)pyridin-3-yl)-1H-indazole-3-carboxamide], 25 nM; to `CC[C@@H](C)NC(=O)c1n[nH]c2ccc(-c3cccnc3)cc12` [Compound 1257, (R)—N-(sec-butyl)-5-(pyridin-3-yl)-1H-indazole-3-carboxamide], 14 nM.
Still for that read-out and setting: the same measure for `CC(C)NC(=O)c1n[nH]c2ccc(-c3cncc(F)c3)cc12` [Compound 1250, 5-(5-Fluoropyridin-3-yl)-N-isopropyl-1H-indazole-3-carboxamide]: 49 nM; for `CC(C)NC(=O)c1n[nH]c2ccc(-c3cncc(CN4CCCCC4)c3)cc12` [Compound 131, N-Isopropyl-5-(5-(piperidin-1-ylmethyl)pyridin-3-yl)-1H-indazole-3-carboxamide]: 10 nM; for `O=C(NCC1CC1)c1n[nH]c2ccc(-c3cncc(Cl)c3)cc12` [Compound 1323, 5-(5-Chloropyridin-3-yl)-N-(cyclopropylmethyl)-1H-indazole-3-carboxamide]: 43 nM.
`O=C(NC1CCCCC1)c1n[nH]c2ccc(-c3cncc(F)c3)cc12` [Compound 1282, N-Cyclohexyl-5-(5-fluoropyridin-3-yl)-1H-indazole-3-carboxamide] gave an EC50 in assay [2] of 22 nM.
Still for that read-out and setting: the same measure for `O=C(NC1CCN(CC(F)F)CC1)c1n[nH]c2ccc(-c3cncc(Cl)c3)cc12` [Compound 1299, 5-(5-Chloropyridin-3-yl)-N-(1-(2,2-difluoroethyl)piperidin-4-yl)-1H-indazole-3-carboxamide]: 20 nM; for `O=C(Nc1ccc(C(F)(F)F)cn1)c1n[nH]c2ccc(-c3cncc(CN4CCCCC4)c3)cc12` [Compound 61, 5-(5-(Piperidin-1-ylmethyl)pyridin-3-yl)-N-(5-(trifluoromethyl)pyridin-2-yl)-1H-indazole-3-carboxamide]: 10 nM; for `O=C(Nc1cc(C(F)(F)F)ccn1)c1n[nH]c2ccc(-c3cccnc3)cc12` [Compound 41, 5-(Pyridin-3-yl)-N-(4-(trifluoromethyl)pyridin-2-yl)-1H-indazole-3-carboxamide]: 118 nM.

The EC50 is the concentration needed to bring the measured effect to its halfway point. Higher therefore signals a need for much substance.

Values taken from patent publication US10669240B2, “5-substituted indazole-3-carboxamides and preparation and use thereof” (Samumed, LLC, priority 2014, dated 2020).
